Assay results: ChEMBL document CHEMBL5653631, “A Potent and Selective ULK1 Inhibitor Suppresses Autophagy and Sensitizes Cancer Cells to Nutrient Stress” (iScience, 2018)

Assays:
[1] = molecular target: T1, Mitogen-activated protein kinase kinase kinase kinase 2 (Homo sapiens) (UniProt Q12851); assay: Inhibition of human recombinant GCK at 500 nM related to control ULK1
T1 sequence (whole entry): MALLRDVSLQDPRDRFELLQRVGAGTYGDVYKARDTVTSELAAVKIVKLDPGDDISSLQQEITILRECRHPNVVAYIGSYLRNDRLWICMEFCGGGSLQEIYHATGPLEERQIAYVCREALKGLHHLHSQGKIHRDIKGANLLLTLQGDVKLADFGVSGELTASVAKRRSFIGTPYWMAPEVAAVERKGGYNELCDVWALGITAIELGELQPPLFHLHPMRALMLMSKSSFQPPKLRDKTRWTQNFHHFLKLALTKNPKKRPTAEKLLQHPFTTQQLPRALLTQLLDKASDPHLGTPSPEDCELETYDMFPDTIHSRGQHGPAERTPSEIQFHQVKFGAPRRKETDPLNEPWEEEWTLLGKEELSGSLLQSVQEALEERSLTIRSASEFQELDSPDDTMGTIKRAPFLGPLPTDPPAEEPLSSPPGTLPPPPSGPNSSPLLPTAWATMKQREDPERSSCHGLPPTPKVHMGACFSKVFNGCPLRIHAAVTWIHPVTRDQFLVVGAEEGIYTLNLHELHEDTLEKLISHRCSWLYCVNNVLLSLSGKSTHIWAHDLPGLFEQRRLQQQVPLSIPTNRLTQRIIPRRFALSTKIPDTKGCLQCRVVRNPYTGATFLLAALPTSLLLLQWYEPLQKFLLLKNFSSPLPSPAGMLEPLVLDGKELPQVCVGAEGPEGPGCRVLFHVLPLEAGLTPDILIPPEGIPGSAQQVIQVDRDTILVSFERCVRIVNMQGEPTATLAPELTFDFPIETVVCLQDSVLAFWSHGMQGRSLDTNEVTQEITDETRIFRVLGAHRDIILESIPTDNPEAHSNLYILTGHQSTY

[2] = molecular target: Tyrosine-protein kinase Tec (Homo sapiens) (UniProt P42680); assay: Inhibition of human recombinant TEC at 500 nM in presence of ATP by radiometric assay relative to control
[3] = molecular target: T2, Tyrosine-protein kinase JAK3 (Homo sapiens) (UniProt P52333); assay: Inhibition of human recombinant JAK3 at 15 nM in presence of ATP by radiometric assay relative to control
T2 sequence (whole entry): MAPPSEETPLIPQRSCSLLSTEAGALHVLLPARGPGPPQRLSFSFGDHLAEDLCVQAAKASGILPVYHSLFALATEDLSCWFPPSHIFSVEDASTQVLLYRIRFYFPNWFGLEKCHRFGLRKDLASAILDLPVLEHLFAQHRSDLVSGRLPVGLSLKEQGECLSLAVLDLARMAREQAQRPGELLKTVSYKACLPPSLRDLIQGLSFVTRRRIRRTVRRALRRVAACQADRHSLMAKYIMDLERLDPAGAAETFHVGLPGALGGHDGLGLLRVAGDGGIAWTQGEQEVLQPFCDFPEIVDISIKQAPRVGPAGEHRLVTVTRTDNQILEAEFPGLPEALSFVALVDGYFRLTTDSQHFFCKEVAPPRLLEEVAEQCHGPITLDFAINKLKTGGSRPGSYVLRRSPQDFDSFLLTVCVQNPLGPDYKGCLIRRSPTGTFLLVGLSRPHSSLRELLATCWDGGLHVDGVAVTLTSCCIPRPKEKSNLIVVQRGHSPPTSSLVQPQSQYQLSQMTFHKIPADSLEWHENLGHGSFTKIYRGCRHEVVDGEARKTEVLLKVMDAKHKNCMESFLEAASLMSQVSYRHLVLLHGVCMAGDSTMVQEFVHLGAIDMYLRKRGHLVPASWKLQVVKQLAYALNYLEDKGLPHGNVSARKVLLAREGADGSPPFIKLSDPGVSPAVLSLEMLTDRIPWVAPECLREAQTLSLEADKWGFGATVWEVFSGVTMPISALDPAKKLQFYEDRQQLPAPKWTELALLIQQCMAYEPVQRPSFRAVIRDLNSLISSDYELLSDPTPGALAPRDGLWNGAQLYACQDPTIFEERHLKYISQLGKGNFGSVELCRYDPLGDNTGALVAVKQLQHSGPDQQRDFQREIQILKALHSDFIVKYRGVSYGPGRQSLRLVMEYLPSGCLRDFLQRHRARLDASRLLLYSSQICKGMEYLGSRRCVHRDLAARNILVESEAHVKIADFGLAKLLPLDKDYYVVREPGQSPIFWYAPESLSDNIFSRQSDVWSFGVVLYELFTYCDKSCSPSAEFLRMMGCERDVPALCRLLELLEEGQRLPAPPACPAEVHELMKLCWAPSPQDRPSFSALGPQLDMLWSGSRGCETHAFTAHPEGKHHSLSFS

[4] = molecular target: Serine/threonine-protein kinase MRCK alpha (Homo sapiens) (UniProt Q5VT25); assay: Inhibition of human recombinant MRCKa at 15 nM related to control ULK1
[5] = molecular target: Serine/threonine-protein kinase SIK3 (Homo sapiens) (UniProt Q9Y2K2); assay: Inhibition of human recombinant QSK at 15 nM related to control ULK1
[6] = molecular target: T3, Serine/threonine-protein kinase ULK3 (Homo sapiens) (UniProt Q6PHR2); assay: Inhibition of human recombinant ULK3 at 15 nM related to control ULK1
T3 sequence (whole entry): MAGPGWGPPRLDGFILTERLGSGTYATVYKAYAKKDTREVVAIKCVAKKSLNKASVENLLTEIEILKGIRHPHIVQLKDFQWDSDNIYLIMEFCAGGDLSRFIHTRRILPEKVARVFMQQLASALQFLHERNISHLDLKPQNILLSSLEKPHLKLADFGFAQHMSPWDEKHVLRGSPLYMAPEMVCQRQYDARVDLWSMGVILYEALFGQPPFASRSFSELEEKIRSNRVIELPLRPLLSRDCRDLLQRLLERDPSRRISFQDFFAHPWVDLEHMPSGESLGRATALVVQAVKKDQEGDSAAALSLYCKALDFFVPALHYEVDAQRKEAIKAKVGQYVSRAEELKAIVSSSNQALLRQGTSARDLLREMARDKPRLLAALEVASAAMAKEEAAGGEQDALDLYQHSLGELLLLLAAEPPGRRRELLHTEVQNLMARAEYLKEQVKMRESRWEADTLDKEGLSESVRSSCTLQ

[7] = molecular target: Serine/threonine-protein kinase 25 (Homo sapiens) (UniProt O00506); assay: Inhibition of human recombinant YSK1 at 15 nM related to control ULK1
[8] = molecular target: Serine/threonine-protein kinase Nek6 (Homo sapiens) (UniProt Q9HC98); assay: Inhibition of human recombinant NEK6 at 40 nM in presence of ATP by radiometric assay relative to control
Chain of Serine/threonine-protein kinase Nek6 (Homo sapiens) (Q9HC98 whole entry): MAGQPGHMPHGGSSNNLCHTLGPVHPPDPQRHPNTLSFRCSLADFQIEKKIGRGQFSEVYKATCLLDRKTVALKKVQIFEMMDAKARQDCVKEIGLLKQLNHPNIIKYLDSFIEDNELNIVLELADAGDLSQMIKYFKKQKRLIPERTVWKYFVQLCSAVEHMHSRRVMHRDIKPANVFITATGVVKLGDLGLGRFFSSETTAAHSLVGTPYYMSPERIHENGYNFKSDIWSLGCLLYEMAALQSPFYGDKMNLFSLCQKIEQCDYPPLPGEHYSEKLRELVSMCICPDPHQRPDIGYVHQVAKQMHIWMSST

Chain of Serine/threonine-protein kinase 25 (Homo sapiens) (O00506 whole entry, looked up): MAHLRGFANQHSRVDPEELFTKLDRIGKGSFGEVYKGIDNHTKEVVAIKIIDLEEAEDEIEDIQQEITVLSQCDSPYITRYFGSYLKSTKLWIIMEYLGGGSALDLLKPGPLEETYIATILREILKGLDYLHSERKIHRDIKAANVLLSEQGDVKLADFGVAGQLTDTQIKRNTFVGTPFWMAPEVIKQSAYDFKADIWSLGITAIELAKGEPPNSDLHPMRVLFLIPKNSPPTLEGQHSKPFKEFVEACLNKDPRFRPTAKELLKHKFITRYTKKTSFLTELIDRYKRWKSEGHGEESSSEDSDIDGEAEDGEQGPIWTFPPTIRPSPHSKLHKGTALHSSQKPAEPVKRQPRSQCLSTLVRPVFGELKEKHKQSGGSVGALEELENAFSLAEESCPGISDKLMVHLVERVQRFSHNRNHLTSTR
Chain of Tyrosine-protein kinase Tec (Homo sapiens) (P42680 whole entry, looked up): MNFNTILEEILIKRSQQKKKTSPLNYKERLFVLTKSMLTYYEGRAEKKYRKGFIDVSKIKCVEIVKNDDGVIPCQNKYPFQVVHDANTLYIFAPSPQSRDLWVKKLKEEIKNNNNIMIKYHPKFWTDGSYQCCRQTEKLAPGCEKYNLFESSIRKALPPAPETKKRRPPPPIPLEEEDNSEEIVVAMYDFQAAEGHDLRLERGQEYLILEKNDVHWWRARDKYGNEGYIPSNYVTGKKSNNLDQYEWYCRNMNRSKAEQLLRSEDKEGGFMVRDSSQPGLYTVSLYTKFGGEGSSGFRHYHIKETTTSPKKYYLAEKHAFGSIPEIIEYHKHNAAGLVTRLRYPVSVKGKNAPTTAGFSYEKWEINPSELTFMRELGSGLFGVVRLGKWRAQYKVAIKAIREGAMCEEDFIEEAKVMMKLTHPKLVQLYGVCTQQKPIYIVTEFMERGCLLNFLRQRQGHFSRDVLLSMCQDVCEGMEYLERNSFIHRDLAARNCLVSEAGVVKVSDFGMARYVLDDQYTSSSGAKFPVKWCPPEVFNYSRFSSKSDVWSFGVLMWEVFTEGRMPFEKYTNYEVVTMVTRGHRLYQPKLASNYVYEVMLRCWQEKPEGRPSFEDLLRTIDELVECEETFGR
Chain of Serine/threonine-protein kinase SIK3 (Homo sapiens) (Q9Y2K2 whole entry, looked up): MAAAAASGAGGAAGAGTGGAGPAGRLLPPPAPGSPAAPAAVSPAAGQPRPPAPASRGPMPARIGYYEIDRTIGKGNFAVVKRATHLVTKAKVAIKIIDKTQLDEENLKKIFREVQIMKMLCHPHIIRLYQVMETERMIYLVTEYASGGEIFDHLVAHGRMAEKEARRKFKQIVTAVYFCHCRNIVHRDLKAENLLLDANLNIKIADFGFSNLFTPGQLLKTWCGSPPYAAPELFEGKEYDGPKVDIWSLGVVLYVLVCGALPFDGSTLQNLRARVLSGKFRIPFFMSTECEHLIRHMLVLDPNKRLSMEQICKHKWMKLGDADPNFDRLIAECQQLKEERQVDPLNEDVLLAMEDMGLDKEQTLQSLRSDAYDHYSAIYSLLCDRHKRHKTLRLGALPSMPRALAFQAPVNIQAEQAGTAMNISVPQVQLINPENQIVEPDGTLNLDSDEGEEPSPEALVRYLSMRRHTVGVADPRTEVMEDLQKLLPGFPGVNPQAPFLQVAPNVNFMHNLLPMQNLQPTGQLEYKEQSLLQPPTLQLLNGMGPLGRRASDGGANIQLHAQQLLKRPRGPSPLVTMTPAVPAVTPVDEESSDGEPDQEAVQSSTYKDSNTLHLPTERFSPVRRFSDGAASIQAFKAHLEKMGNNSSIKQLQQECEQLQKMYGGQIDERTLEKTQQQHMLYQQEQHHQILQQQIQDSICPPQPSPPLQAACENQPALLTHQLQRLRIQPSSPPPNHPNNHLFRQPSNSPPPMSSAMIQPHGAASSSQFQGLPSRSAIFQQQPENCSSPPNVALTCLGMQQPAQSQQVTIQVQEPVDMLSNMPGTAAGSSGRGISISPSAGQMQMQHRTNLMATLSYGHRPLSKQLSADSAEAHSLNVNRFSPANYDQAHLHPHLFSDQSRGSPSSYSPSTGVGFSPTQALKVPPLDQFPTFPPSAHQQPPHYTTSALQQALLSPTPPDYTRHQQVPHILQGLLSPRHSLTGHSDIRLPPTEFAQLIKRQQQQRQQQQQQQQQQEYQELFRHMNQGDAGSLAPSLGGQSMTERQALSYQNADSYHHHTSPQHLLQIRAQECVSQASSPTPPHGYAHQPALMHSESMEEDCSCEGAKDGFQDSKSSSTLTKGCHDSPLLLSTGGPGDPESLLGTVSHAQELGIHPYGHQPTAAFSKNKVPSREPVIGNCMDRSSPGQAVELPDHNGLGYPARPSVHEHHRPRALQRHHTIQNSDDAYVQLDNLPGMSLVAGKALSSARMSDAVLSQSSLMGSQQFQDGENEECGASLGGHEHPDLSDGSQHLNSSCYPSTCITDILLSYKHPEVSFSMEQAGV
Chain of Serine/threonine-protein kinase MRCK alpha (Homo sapiens) (Q5VT25 whole entry): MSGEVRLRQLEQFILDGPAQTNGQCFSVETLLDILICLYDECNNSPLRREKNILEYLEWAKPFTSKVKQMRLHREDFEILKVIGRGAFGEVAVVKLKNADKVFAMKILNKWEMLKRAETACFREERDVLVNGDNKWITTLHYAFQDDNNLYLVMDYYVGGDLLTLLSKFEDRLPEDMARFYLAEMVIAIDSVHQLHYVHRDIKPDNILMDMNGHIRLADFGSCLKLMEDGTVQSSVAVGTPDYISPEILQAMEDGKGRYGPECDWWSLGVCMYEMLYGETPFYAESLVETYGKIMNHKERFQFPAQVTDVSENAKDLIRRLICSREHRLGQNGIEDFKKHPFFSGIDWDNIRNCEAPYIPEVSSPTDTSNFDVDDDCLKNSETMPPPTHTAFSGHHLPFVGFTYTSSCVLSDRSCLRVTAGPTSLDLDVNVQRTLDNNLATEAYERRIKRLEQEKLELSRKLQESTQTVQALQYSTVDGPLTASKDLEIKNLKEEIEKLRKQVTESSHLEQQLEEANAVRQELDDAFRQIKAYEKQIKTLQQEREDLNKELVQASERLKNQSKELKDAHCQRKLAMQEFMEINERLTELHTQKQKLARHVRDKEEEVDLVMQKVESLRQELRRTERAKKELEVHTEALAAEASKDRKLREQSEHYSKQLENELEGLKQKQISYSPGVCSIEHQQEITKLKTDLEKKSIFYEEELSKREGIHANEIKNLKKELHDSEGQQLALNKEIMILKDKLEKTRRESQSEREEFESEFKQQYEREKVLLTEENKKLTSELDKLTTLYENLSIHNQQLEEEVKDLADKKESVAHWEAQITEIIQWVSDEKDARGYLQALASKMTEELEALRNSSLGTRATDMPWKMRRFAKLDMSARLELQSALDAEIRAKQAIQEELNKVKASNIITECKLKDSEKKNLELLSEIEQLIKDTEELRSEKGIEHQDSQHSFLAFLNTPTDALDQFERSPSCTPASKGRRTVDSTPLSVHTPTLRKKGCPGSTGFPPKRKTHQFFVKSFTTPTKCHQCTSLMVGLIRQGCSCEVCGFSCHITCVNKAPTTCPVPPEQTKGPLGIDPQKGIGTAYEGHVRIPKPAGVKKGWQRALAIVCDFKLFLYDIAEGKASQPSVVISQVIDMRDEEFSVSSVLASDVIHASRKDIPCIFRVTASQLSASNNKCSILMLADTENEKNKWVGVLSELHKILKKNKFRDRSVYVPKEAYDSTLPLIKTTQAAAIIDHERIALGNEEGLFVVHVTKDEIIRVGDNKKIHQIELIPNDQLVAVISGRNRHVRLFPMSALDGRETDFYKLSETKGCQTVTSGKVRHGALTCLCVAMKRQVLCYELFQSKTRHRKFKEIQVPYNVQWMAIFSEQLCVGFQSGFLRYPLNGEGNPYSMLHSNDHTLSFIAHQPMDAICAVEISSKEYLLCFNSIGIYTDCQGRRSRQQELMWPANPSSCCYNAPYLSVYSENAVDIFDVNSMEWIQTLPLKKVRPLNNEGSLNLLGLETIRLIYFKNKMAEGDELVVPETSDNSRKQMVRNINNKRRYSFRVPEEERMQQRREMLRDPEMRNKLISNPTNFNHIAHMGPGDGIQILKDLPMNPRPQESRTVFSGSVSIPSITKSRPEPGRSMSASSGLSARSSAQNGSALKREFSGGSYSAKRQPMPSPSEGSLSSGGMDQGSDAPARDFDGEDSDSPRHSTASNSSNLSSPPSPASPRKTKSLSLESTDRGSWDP

With `CNC(=O)c1ccccc1Oc1nc(Nc2cc(OC)c(OC)c(OC)c2)ncc1Br` the fold change (FC) [1] was 0.45 and the inhibition [2] was 2%.

In the case of `CC(C)[C@H](NC(=O)c1cc(-c2cnn3cc(-c4ccc(OCCN5CCCCC5)cc4)cnc23)cs1)C(F)(F)F`, the inhibition [3] is reported as 0%, the fold change (FC) [4] is reported as 0.13 and the fold change (FC) [5] is reported as 0.98. The fold change (FC) [6] was 0.45 and the fold change (FC) [7] was 0.

`O=C(N[C@@H](C1CC1)C(F)(F)F)c1cc(-c2cnn3cc(-c4ccc(F)cc4)cnc23)cs1` was tested, and the inhibition [8] was 0%.
